# Experimental data taken from ChEMBL document CHEMBL1155232, “Aminoimidazoles as potent and selective human beta-secretase (BACE1) inhibitors” (J Med Chem, 2009).
# The source made the active and inactive calls. The calls are words filed in the database; no cut-off is given here.
# Key:
# Beta-secretase 1 [1] = target: T1, Beta-secretase 1 (Homo sapiens, UniProt P56817); test: Inhibition of human BACE1 by FRET
# Cathepsin D [2] = target: T2, Cathepsin D (Homo sapiens, UniProt P07339); test: Inhibition of human cathepsin D by FRET
# Beta-secretase 1 [3] = target: T1, Beta-secretase 1; test: Inhibition of BACE1 expressed in CHO cells co-expressing human wild type APP protein by ELISA; assay type: cell-based
# Cathepsin D [4] = target: T2, Cathepsin D; test: Inhibition of human cathepsin D at 100 uM by FRET
# Beta-secretase 2 = target: T3, Beta-secretase 2 (Homo sapiens, UniProt Q9Y5Z0)
# T3 sequence (Q9Y5Z0 whole entry): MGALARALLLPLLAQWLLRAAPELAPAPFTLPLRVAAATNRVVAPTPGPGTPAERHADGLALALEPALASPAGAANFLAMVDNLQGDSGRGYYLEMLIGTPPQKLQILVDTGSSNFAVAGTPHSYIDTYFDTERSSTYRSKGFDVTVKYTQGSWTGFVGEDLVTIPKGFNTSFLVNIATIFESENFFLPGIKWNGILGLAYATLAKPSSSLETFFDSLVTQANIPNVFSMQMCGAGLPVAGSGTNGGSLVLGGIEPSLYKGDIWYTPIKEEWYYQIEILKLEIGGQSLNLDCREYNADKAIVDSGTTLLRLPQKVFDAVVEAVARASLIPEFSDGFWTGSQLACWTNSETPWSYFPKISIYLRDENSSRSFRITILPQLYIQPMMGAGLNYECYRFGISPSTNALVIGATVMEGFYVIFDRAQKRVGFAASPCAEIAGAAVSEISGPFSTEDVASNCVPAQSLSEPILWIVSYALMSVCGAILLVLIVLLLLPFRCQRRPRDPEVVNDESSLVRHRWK
# Renin (Homo sapiens) = target: T4, Renin (Homo sapiens) (UniProt P00797); test: Inhibition of human recombinant renin at 50 uM by FRET
# T4 sequence (whole entry): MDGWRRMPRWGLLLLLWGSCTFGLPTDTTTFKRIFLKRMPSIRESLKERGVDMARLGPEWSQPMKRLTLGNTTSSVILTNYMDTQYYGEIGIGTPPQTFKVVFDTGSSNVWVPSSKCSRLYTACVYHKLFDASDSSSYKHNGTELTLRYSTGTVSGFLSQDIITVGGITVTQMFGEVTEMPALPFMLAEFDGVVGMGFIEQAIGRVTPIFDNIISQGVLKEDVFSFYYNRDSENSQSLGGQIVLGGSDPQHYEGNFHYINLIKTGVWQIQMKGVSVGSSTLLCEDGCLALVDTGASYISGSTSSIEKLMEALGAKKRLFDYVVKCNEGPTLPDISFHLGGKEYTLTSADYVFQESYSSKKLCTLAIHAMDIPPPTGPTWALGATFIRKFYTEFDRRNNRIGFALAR
# [5] = Inhibition of pepsin at 100 uM by FRET
# [6] = target: T5, Beta-secretase 2 (Homo sapiens) (UniProt Q9Y5Z0); test: Inhibition of human BACE2 at […] by FRET
# T5 sequence (whole entry): T3 sequence (Q9Y5Z0 whole entry)
# Cathepsin D [7] = target: T2, Cathepsin D; test: Inhibition of human cathepsin D at 200 uM by FRET
# [8] = target: T5, Beta-secretase 2 (Homo sapiens); test: Inhibition of human BACE2 at 100 uM by FRET
# Mus musculus [9] = test: Reduction in Abeta-40 level in Tg2576 mouse plasma at 30 mg/kg, po administered as single dose after 6 hrs; assay type: functional; set-up: scale not given: the % may be the effect or the level left
# Mus musculus [10] = test: Reduction in Abeta-40 level in Tg2576 mouse brain at 30 mg/kg, po administered as single dose after 6 hrs; assay type: functional, organism-based; set-up: dose 30 mg/kg
# Renin = target: T6, Renin (Homo sapiens, UniProt P00797); test: Inhibition of human recombinant renin by FRET
# T6 sequence (P00797 whole entry): T4 sequence (whole entry)
# T2 sequence (P07339 65-162 limits assumed): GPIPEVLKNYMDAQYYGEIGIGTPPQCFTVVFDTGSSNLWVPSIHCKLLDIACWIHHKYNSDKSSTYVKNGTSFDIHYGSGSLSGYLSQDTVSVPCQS
# T2 sequence (P07339 169-412 limits assumed): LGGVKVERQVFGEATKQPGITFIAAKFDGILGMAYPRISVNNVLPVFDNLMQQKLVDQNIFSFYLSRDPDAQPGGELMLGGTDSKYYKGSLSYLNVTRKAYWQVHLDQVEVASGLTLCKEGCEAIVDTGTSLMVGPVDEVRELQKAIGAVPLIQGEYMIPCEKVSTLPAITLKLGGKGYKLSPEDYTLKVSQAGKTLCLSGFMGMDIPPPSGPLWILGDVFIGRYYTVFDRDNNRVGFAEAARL
# T1 sequence (P56817 whole entry): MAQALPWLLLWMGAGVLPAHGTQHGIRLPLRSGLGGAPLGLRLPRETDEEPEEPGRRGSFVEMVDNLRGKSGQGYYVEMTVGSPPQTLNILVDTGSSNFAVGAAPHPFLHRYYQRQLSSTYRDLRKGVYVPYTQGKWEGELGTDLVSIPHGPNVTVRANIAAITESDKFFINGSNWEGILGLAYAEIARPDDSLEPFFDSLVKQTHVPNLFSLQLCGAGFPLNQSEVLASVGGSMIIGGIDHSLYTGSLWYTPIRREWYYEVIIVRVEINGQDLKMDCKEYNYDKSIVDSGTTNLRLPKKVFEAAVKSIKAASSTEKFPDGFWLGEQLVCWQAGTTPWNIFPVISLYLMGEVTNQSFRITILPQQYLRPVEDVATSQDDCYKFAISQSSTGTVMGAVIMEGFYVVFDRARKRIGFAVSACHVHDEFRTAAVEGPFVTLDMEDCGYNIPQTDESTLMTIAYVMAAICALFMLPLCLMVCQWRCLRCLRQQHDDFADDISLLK
SMILES,IC50 (Cathepsin D [2]) [µM],EC50 (Beta-secretase 1 [3]) [µM],IC50 (Beta-secretase 2) [µM],other results
NC1=NC(c2ccc(OC(F)(F)F)cc2)(c2cccc(-c3cccnc3F)c2)C2=NCCCCN12 (stereo unspecified),10.8,0.3,–,IC50 (Beta-secretase 1 [1]): 0.08 µM
NC1=NC(c2ccccc2)(c2cccc(C(F)(F)F)c2)C2=NCCCN12 (stereo unspecified),–,5.1,30.1,IC50 (Beta-secretase 1 [1]): 21.9 µM; inhibition (Cathepsin D [4]): 28%
NC1=NC(c2ccc(OC(F)(F)F)cc2)(c2cccc(CCC3CC3)c2)C2=NCCCN12 (stereo unspecified),16.4,0.95,3.78,–
NC1=NC(c2ccc(OC(F)(F)F)cc2)(c2cccc(-c3cncnc3)c2)C2=NCCCN12 (stereo unspecified),78.7,–,16.7,–
NC1=NC(c2ccccc2)(c2ccccc2)C2=NCCCN12,–,–,–,inhibition (Cathepsin D [7]): 16%
CCOc1ccc(C2(c3cccc(-c4cccnc4F)c3)N=C(N)N3CCCN=C32)cc1OCC (stereo unspecified),63.4,–,–,inhibition (Renin (Homo sapiens)): 14%; IC50 (Beta-secretase 1 [1]): 0.08 µM; inhibition [5]: 11%
CC(C)(C)c1cccc(C2(c3ccccc3)N=C(N)N3CCCN=C32)c1 (stereo unspecified),150,3,–,inhibition [8]: 21%; IC50 (Beta-secretase 1 [1]): 30.2 µM
COc1ccc(C2(c3cccc(-c4cncnc4)c3)N=C(N)N3CCCN=C32)cc1 (stereo unspecified),69.5,–,16.2,–
CCCc1cccc(C2(c3ccc(OC(F)(F)F)cc3)N=C(N)N3CCCN=C32)c1 (stereo unspecified),93.7,2.1,–,–
COc1cccc(C2(c3ccccc3)N=C(N)N3CCCN=C32)c1 (stereo unspecified),–,20.9,24.4,IC50 (Beta-secretase 1 [1]): 20.3 µM; inhibition (Cathepsin D [4]): 22%
NC1=N[C@@](c2ccc(OC(F)(F)F)cc2)(c2cccc(-c3cncnc3)c2)C2=NCCCN12,–,–,–,inhibition (Cathepsin D [4]): 29%
NC1=NC(c2cccc(-c3cccnc3F)c2)(c2ccc3c(c2)OC(F)(F)O3)C2=NCCCN12 (stereo unspecified),95.3,–,–,–
NC1=N[C@](c2ccc(OC(F)(F)F)cc2)(c2cccc(-c3cccnc3F)c2)C2=NCCCN12,6.9,–,3.6,Activity (Mus musculus [9]): 71%; Activity (Mus musculus [10]): inactive; inhibition [5]: 13%; IC50 (Renin): 20.8 µM
NC1=NC(c2ccc(OC(F)(F)F)cc2)(c2cccc(-c3cccnc3F)c2)C2=NOCCN12 (stereo unspecified),2.4,0.2,–,inhibition [5]: 12%; IC50 (Renin): 2.04 µM

# Further lines, with some results ahead:
IC50 (Cathepsin D [2]) [µM],EC50 (Beta-secretase 1 [3]) [µM],IC50 (Beta-secretase 2) [µM],SMILES,other results
9.2,4.6,7,NC1=NC(c2ccccc2)(c2cccc(Cc3ccc(F)cc3)c2)C2=NCCCN12 (stereo unspecified),inhibition (Renin (Homo sapiens)): 15%; inhibition [5]: 6%
47.4,1.6,–,NC1=NC(c2ccc(OC(F)(F)F)cc2)(c2cccc(Br)c2)C2=NCCCN12 (stereo unspecified),IC50 (Beta-secretase 1 [1]): 2.6 µM; inhibition [6]: 39%
36.2,–,10.7,NC1=N[C@](c2ccc(OC(F)(F)F)cc2)(c2cccc(-c3cncnc3)c2)C2=NCCCN12,inhibition (Renin (Homo sapiens)): 36%; inhibition [5]: 12%
16.5,1.63,–,COc1ccc(C2(c3cccc(-c4cccnc4F)c3)N=C(N)N3CCCN=C32)cc1 (stereo unspecified),IC50 (Beta-secretase 1 [1]): 0.07 µM
9.6,–,–,NC1=NC(c2cccc(-c3cccnc3F)c2)(c2ccc3c(c2)OCCO3)C2=NCCCN12 (stereo unspecified),–
33,1.5,17.3,CC1(C)CN2C(N)=NC(c3ccc(OC(F)(F)F)cc3)(c3cccc(-c4cccnc4F)c3)C2=N1 (stereo unspecified),IC50 (Beta-secretase 1 [1]): 0.19 µM
11.3,–,10.8,NC1=NC(c2ccc(OC(F)(F)F)cc2)(c2cccc(-c3cccnc3F)c2)/C2=N/CCCCCN12 (stereo unspecified),–
18.1,–,–,NC1=NC(c2ccc(OC(F)(F)F)cc2)(c2cccc(-c3cccnc3F)c2)C2=NCCCN12 (racemic),–
56.9,–,–,NC1=N[C@@](c2ccc(OC(F)(F)F)cc2)(c2cccc(-c3cccnc3F)c2)C2=NCCCN12,–
10.7,–,–,NC1=NC(c2ccc(OC(F)(F)F)cc2)(c2cccc(-c3cccnc3F)c2)C2=NCCN12 (stereo unspecified),–
24.9,5.1,22.4,COc1ccc(Cc2cccc(C3(c4ccccc4)N=C(N)N4CCCN=C43)c2)cc1 (stereo unspecified),–
15.4,–,–,NC1=NC(c2cccc(-c3cccnc3F)c2)(c2ccc3c(c2)OCO3)C2=NCCCN12 (stereo unspecified),inhibition (Renin (Homo sapiens)): 24%; inhibition [5]: 18%
52.5,5.1,10.9,NC1=NC(c2ccccc2)(c2cccc(Cc3ccccc3)c2)C2=NCCCN12 (stereo unspecified),–
